Target: T1, JAK3 (Homo sapiens, UniProt P52333)
T1 construct: endogenous in cells; host or cells: mixed Molt4/Ramos lysate (1:2)
T1 sequence (P52333 1-1124): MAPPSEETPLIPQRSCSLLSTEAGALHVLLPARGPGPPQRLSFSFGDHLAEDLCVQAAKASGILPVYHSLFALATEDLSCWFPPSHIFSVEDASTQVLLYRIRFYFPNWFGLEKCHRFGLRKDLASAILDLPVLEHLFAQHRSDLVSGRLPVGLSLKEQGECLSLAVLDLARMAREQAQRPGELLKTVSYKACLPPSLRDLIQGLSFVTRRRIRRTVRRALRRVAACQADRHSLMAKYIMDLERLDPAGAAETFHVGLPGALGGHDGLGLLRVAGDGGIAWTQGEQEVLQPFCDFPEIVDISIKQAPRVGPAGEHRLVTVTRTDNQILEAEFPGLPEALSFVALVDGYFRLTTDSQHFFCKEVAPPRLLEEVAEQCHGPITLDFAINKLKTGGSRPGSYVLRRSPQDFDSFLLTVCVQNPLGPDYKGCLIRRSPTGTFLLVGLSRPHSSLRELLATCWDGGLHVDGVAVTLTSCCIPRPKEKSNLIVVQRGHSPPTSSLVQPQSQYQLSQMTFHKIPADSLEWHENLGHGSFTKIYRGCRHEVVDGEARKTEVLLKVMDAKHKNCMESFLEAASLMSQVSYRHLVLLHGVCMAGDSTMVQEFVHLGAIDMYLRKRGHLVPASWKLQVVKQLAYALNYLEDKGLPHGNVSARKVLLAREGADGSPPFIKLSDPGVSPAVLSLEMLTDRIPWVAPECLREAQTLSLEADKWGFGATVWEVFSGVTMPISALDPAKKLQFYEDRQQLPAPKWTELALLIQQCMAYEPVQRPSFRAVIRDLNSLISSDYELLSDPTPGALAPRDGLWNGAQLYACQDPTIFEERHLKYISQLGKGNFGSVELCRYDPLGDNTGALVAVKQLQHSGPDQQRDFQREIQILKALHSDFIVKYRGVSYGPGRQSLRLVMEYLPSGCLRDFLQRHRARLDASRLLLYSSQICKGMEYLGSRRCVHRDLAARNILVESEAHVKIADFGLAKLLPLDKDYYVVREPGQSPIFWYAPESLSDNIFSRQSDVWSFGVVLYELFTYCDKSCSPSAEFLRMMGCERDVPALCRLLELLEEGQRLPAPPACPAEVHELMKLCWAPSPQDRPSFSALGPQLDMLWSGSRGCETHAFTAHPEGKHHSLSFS
Assay: Kinobeads assay, JAK3
Format: binding
Conditions: mixed Molt4/Ramos lysate, read-out: Inhibition values (IC50) JAK3
Outline: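 IC50 values come from dose-response curves of JAK2/JAK3 captured on immobilized aminopyrido-pyrimidine beads, quantified by antibody dot blot with infrared read-out. Compounds (1:3 series, 9 steps, from 5 mM DMSO stock) competed for 3 h in the cold with mixed Molt4/Ramos lysate (1:2, 10 mg/mL protein).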

Row | Structure (SMILES) | IC50 [nM]
1 | OCCn1cc(Nc2ncc3cnn(Cc4cc(N5CCOCC5)cc(F)c4F)c3n2)cn1 [Example 56, 2-(4-((1-(2,3-Difluoro-5-morpholinobenzyl)-1H-pyrazolo[3,4-d]pyrimidin-6-yl)amino)-1H-pyrazol-1-yl)ethanol] | < 100
2 | O=C1CNCCN1c1cccc(Cn2ncc3cnc(Nc4cnn(CCO)c4)nc32)c1 [Example 57, 1-(3-((6-((1-(2-Hydroxyethyl)-1H-pyrazol-4-yl)amino)-1H-pyrazolo[3,4-d]pyrimidin-1-yl)methyl)phenyl)piperazin-2-one] | < 100
3 | O=C1COCCN1c1cc(F)cc(Cn2ncc3cnc(Nc4cnn(CCO)c4)nc32)c1 [Example 58, 4-(3-Fluoro-5-((6-((1-(2-hydroxyethyl)-1H-pyrazol-4-yl)amino)-1H-pyrazolo[3,4-d]pyrimidin-1-yl)methyl)phenyl)morpholin-3-one] | < 100
4 | O=C1COCCN1c1cc(F)c(F)c(Cn2ncc3cnc(Nc4cnn(CCO)c4)nc32)c1 [Example 59, 4-(3,4-Difluoro-5-((6-((1-(2-hydroxyethyl)-1H-pyrazol-4-yl)amino)-1H-pyrazolo[3,4-d]pyrimidin-1-yl)methyl)phenyl)morpholin-3-one] | < 100
5 | c1cc(Cn2ncc3cnc(Nc4cnn(CC5CCNC5)c4)nc32)cc(N2CCOCC2)c1 (stereo not drawn) [Example 60, 1-(3-Morpholinobenzyl)-N-(1-(pyrrolidin-3-ylmethyl)-1H-pyrazol-4-yl)-1H-pyrazolo[3,4-d]pyrimidin-6-amine] | < 100
6 | Cn1cc(Nc2ncc3cnn(Cc4c(F)c(F)cc(N5CCOCC5=O)c4F)c3n2)cn1 [Example 61, 4-(2,4,5-Trifluoro-3-((6-((1-methyl-1H-pyrazol-4-yl)amino)-1H-pyrazolo[3,4-d]pyrimidin-1-yl)methyl)phenyl)morpholin-3-one] | < 100
7 | O=C1COCCN1c1cc(F)c(F)c(Cn2ncc3cnc(Nc4cnn(CCO)c4)nc32)c1F [Example 62, 4-(2,4,5-Trifluoro-3-((6-((1-(2-hydroxyethyl)-1H-pyrazol-4-yl)amino)-1H-pyrazolo[3,4-d]pyrimidin-1-yl)methyl)phenyl)morpholin-3-one] | < 100
8 | O=C1CNCCN1c1cc(F)cc(Cn2ncc3cnc(Nc4cnn(CCO)c4)nc32)c1 [Example 63, 1-(3-Fluoro-5-((6-((1-(2-hydroxyethyl)-1H-pyrazol-4-yl)amino)-1H-pyrazolo[3,4-d]pyrimidin-1-yl)methyl)phenyl)piperazin-2-one] | < 100
9 | Cn1cc(Nc2ncc3cnn(Cc4cc(F)cc(N5CCNCC5=O)c4)c3n2)cn1 [Example 64, 1-(3-Fluoro-5-((6-((1-methyl-1H-pyrazol-4-yl)amino)-1H-pyrazolo[3,4-d]pyrimidin-1-yl)methyl)phenyl)piperazin-2-one] | < 100
10 | COC1CN(c2cccc(Cn3ncc4cnc(Nc5cnn(C)c5)nc43)c2)C1 [Example 65, 1-(3-(3-Methoxyazetidin-1-yl)benzyl)-N-(1-methyl-1H-pyrazol-4-yl)-1H-pyrazolo[3,4-d]pyrimidin-6-amine] | < 100
11 | Cn1cc(Nc2ncc3cnn(Cc4c(F)c(F)cc(N5CCNCC5)c4F)c3n2)cn1 [Example 66, N-(1-Methyl-1H-pyrazol-4-yl)-1-(2,3,6-trifluoro-5-(piperazin-1-yl)benzyl)-1H-pyrazolo[3,4-d]pyrimidin-6-amine] | < 100
12 | Cn1cc(Nc2ncc3cnn(Cc4cccc(N5CCNCC5)c4F)c3n2)cn1 [Example 67, 1-(2-Fluoro-3-(piperazin-1-yl)benzyl)-N-(1-methyl-1H-pyrazol-4-yl)-1H-pyrazolo[3,4-d]pyrimidin-6-amine] | < 100
13 | CNC(=O)Cn1cc(Nc2ncc3cnn(Cc4cc(F)cc(N5CCOCC5=O)c4)c3n2)cn1 [Example 68, 2-(4-((1-(3-Fluoro-5-(3-oxomorpholino)benzyl)-1H-pyrazolo[3,4-d]pyrimidin-6-yl)amino)-1H-pyrazol-1-yl)-N-methylacetamide] | < 100
14 | Cn1cc(Nc2ncc3cnn(Cc4c(F)ccc(N5CCOCC5=O)c4F)c3n2)cn1 [Example 69, 4-(2,4-Difluoro-3-((6-((1-methyl-1H-pyrazol-4-yl)amino)-1H-pyrazolo[3,4-d]pyrimidin-1-yl)methyl)phenyl)morpholin-3-one] | < 100
15 | CN(C)CCCn1cc(Nc2ncc3cnn(Cc4c(F)c(F)cc(N5CCOCC5=O)c4F)c3n2)cn1 [Example 70, 4-(3-((6-((1-(3-(Dimethylamino)propyl)-1H-pyrazol-4-yl)amino)-1H-pyrazolo[3,4-d]pyrimidin-1-yl)methyl)-2,4,5-trifluorophenyl)morpholin-3-one] | < 100
16 | Cn1cc(Nc2ncc3cnn(Cc4cc(N5CCNCC5=O)cc(F)c4F)c3n2)cn1 [Example 71, 1-(3,4-Difluoro-5-((6-((1-methyl-1H-pyrazol-4-yl)amino)-1H-pyrazolo[3,4-d]pyrimidin-1-yl)methyl)phenyl)piperazin-2-one] | < 100
17 | O=C1CNCCN1c1cc(F)c(F)c(Cn2ncc3cnc(Nc4cnn(CCO)c4)nc32)c1 [Example 72, 1-(3,4-Difluoro-5-((6-((1-(2-hydroxyethyl)-1H-pyrazol-4-yl)amino)-1H-pyrazolo[3,4-d]pyrimidin-1-yl)methyl)phenyl)piperazin-2-one] | < 100
18 | Cn1cc(Nc2ncc3cnn(Cc4cc(F)cc(N5CCOCC5=O)c4F)c3n2)cn1 [Example 73, 4-(2,5-Difluoro-3-((6-((1-methyl-1H-pyrazol-4-yl)amino)-1H-pyrazolo[3,4-d]pyrimidin-1-yl)methyl)phenyl)morpholin-3-one] | < 100
19 | O=C1COCCN1c1cc(F)cc(Cn2ncc3cnc(Nc4cnn(CCO)c4)nc32)c1F [Example 74, 4-(2,5-Difluoro-3-((6-((1-(2-hydroxyethyl)-1H-pyrazol-4-yl)amino)-1H-pyrazolo[3,4-d]pyrimidin-1-yl)methyl)phenyl)morpholin-3-one] | < 100
20 | CN(C)CCCn1cc(Nc2ncc3cnn(Cc4c(F)ccc(N5CCOCC5=O)c4F)c3n2)cn1 [Example 75, 4-(3-((6-((1-(3-(Dimethylamino)propyl)-1H-pyrazol-4-yl)amino)-1H-pyrazolo[3,4-d]pyrimidin-1-yl)methyl)-2,4-difluorophenyl)morpholin-3-one] | < 100
21 | Cn1cc(Nc2ncc3cnn(Cc4c(F)ccc(N5CCNCC5=O)c4F)c3n2)cn1 [Example 76, 1-(2,4-Difluoro-3-((6-((1-methyl-1H-pyrazol-4-yl)amino)-1H-pyrazolo[3,4-d]pyrimidin-1-yl)methyl)phenyl)piperazin-2-one] | < 100
22 | COC1CCN(c2cccc(Cn3ncc4cnc(Nc5cnn(C)c5)nc43)c2)CC1 [Example 77, 1-(3-(4-Methoxypiperidin-1-yl)benzyl)-N-(1-methyl-1H-pyrazol-4-yl)-1H-pyrazolo[3,4-d]pyrimidin-6-amine] | < 100
23 | OCCn1cc(Nc2ncc3cnn(Cc4cc(N5CCNCC5)cc(F)c4F)c3n2)cn1 [Example 78, 2-(4-((1-(2,3-Difluoro-5-(piperazin-1-yl)benzyl)-1H-pyrazolo[3,4-d]pyrimidin-6-yl)amino)-1H-pyrazol-1-yl)ethanol] | < 100
24 | Cn1cc(Nc2ncc3cnn(Cc4cc(F)cc(C(=O)N5CCOCC5)c4)c3n2)cn1 [Example 79, (3-Fluoro-5-((6-((1-methyl-1H-pyrazol-4-yl)amino)-1H-pyrazolo[3,4-d]pyrimidin-1-yl)methyl)phenyl)(morpholino)methanone] | < 100

From patent US9040545B2, “Heterocyclyl pyrazolopyrimidine analogues as selective JAK inhibitors” (Cellzome Limited, priority 2010, dated 2015)
